The record followed here is ChEMBL document CHEMBL1127774, “2,3,6-Substituted quinazolinones as angiotensin II receptor antagonists” (Bioorg Med Chem Lett, 1994).

What is called pA2 is a measure of antagonist potency on a negative log scale. Read a low pA2 as lower antagonist potency. A word on the IC50: it is the concentration that gives 50% inhibition. Lower therefore signals greater potency in that assay.

The first test deals with Type-1 angiotensin II receptor (Oryctolagus cuniculus) (UniProt P34976). In words: Concentration required for inhibition […] against Angiotensin II receptor in rabbit aortic rings.
Chain of Type-1 angiotensin II receptor (Oryctolagus cuniculus) (P34976 whole entry, looked up): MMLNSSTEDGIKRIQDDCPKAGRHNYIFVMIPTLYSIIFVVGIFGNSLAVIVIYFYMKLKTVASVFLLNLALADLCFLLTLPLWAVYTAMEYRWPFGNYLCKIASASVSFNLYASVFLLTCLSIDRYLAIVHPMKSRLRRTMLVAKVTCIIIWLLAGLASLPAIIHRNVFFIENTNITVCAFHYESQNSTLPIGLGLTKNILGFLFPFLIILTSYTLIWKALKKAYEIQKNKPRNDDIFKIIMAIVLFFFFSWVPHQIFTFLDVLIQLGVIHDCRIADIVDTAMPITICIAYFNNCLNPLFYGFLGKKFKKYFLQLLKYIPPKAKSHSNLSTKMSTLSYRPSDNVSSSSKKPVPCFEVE
In turn, `CCCCc1nc2ccc(C(C)(C)OC)cc2c(=O)n1Cc1ccc(-c2ccccc2-c2nn[nH]n2)cc1` [CL-329167] came in with a pA2 of 8.01.

Another test has as its target T1, Type-1 angiotensin II receptor (Bos taurus, UniProt P25104).
T1 sequence (P25104 whole entry): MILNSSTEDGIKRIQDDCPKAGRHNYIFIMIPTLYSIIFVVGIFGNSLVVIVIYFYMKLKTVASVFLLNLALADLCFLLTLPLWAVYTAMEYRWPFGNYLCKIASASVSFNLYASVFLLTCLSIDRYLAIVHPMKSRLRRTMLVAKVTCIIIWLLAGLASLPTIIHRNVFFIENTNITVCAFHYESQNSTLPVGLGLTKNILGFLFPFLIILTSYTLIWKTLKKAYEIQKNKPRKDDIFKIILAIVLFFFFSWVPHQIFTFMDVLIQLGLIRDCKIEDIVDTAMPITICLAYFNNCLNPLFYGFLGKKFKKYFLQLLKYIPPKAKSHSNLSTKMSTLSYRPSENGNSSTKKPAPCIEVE
In words: Concentration required for 50% inhibition of binding against Angiotensin II receptor in the bovine adrenal cortex tissue. It is filed as tissue-based.
The compound `CCCCc1nc2ccc(COc3ccccn3)cc2c(=O)n1Cc1ccc(-c2ccccc2-c2nn[nH]n2)cc1` had an IC50 of 130 nM.
Turning to `CCCCc1nc2ccc(COc3ccccc3)cc2c(=O)n1Cc1ccc(-c2ccccc2-c2nnn[nH]2)cc1`, the IC50 was 130 nM.
In the case of `CCCCc1nc(Cl)c(CO)n1Cc1ccc(-c2ccccc2-c2nn[nH]n2)cc1` [LOSARTAN], the half-inhibitory concentration (IC50) is 330 nM.

Another test concerns the target T2, Angiotensin II receptor (Rattus norvegicus, UniProt P29089+P25095+P35351).
T2 sequence (P29089 whole entry): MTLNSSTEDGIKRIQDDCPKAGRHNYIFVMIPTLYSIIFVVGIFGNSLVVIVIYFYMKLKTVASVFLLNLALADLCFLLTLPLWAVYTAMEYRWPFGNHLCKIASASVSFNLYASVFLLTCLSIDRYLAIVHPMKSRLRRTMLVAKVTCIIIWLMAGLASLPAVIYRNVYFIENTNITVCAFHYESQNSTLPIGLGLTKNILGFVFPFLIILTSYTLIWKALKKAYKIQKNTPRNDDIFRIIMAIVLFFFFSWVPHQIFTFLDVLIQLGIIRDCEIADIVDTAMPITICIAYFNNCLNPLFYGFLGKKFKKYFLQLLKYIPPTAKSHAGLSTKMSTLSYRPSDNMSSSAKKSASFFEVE
T2 sequence (P25095 whole entry): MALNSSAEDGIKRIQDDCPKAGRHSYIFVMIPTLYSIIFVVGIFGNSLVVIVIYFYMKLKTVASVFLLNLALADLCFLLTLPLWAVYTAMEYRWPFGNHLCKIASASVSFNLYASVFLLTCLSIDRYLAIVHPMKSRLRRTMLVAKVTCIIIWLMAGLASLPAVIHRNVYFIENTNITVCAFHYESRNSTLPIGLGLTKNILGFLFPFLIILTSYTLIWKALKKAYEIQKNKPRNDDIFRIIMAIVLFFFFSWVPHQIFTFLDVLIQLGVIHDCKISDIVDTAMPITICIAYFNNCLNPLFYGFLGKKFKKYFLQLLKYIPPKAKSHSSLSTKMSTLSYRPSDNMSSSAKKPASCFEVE
T2 sequence (P35351 whole entry): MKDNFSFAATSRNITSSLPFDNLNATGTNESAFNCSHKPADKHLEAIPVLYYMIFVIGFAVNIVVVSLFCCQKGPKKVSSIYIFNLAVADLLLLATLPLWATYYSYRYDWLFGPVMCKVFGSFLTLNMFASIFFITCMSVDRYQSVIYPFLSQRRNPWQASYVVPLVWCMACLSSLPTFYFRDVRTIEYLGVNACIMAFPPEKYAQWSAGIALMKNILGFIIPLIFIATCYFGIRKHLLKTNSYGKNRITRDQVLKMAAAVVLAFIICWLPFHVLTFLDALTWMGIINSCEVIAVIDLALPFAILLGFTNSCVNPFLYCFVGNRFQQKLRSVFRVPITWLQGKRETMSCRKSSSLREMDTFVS
In words: Concentration required for 50% inhibition of binding against Angiotensin II receptor in the rat adrenal cortex tissue. Type of test: tissue-based.
As for `CCCCc1nc2ccc(C(C)N)cc2c(=O)n1Cc1ccc(-c2ccccc2-c2nn[nH]n2)cc1` (centres undefined), the IC50 was 14 nM.
`CCCCc1nc2ccc(CN)cc2c(=O)n1Cc1ccc(-c2ccccc2-c2nn[nH]n2)cc1` had an IC50 of 15 nM.
As to `CCCCc1nc2ccc(C(C)(C)O)cc2c(=O)n1Cc1ccc(-c2ccccc2-c2nn[nH]n2)cc1`, the IC50 stood at 9 nM.
On the same count and under the same terms, to `CCCCc1nc2ccc(COC)cc2c(=O)n1Cc1ccc(-c2ccccc2-c2nn[nH]n2)cc1` belongs 18 nM; to `CCCCc1nc2ccc(C(CC)OC)cc2c(=O)n1Cc1ccc(-c2ccccc2-c2nn[nH]n2)cc1` (centres undefined), 5 nM; to `CCCCc1nc2ccc(C(O)CC)cc2c(=O)n1Cc1ccc(-c2ccccc2-c2nn[nH]n2)cc1` (centres undefined), 12 nM.
Take `CCCCc1nc2ccc(C(C)OC)cc2c(=O)n1Cc1ccc(-c2ccccc2-c2nn[nH]n2)cc1` (centres undefined): the IC50 stood at 7 nM.
`CCCCc1nc2ccc(CO)cc2c(=O)n1Cc1ccc(-c2ccccc2-c2nn[nH]n2)cc1` yielded a 50% inhibitory concentration (IC50) of 10 nM.
`CCCCc1nc2ccc(C(C)O)cc2c(=O)n1Cc1ccc(-c2ccccc2-c2nn[nH]n2)cc1` (centres undefined): the IC50 was found to be 9 nM.
On the same count and under the same terms, for `CCCCc1nc2ccc(C(O)CO)cc2c(=O)n1Cc1ccc(-c2ccccc2-c2nn[nH]n2)cc1` (centres undefined) the value was 1000 nM; for `CCCCc1nc2ccc(C(OC)c3ccccc3)cc2c(=O)n1Cc1ccc(-c2ccccc2-c2nn[nH]n2)cc1` (centres undefined), 9 nM.
As for `CCCCc1nc2ccc(C(O)C(C)(C)C)cc2c(=O)n1Cc1ccc(-c2ccccc2-c2nn[nH]n2)cc1` (centres undefined), the half-maximal inhibitory concentration (IC50) amounted to 1000 nM.
Take `CCCCc1nc2ccc(C(C)NC(C)=O)cc2c(=O)n1Cc1ccc(-c2ccccc2-c2nn[nH]n2)cc1` (centres undefined): the concentration for half-maximal inhibition (IC50) came to 6 nM.
`CCCCc1nc2ccc(C)cc2c(=O)n1Cc1ccc(-c2ccccc2-c2nn[nH]n2)cc1` returned a half-maximal inhibitory concentration (IC50) of 10 nM.
On the same count and under the same terms, for `CCCCc1nc2ccc(C(C)(C)OC)cc2c(=O)n1Cc1ccc(-c2ccccc2-c2nn[nH]n2)cc1` [CL-329167] the value was 6 nM.
